Source: US20240101510A1, “APYRASE INHIBITORS” (Texas Crop Science, priority 2022, published 2024)
Blank lines part the entries; values can stand above or below the compound they belong to.

Legend:
apyrase = experiment: In vitro apyrase assay (screen for apyrase inhibitors, phosphate release read at 630 nm); assay type: biochemical; conditions: inhibitor conc at 1 mM; 1 hr at room temperature; rounded average of two assay results
Experimental: Method 1: In Vitro Apyrase Assay: Apyrase inhibitors useful as enhancers of pesticidal activity are assessed using an in vitro assay. The method of Windsor, Bio Techniques 33:1024-1030 (November 2002) was used as follows: Screen for Apyrase Inhibitors - 96 well plates were used for the assay: (Greiner bio-one: REF-655901-96 well, PS, F-bottom, Clear, Non-binding) Buffers: • Reaction Buffer: 60 mM Hepes; 3 mM MgCl2, 3 mM CaCl2 and 3 mM ATP (pH 6.5) • Development Buffer A: 2% aqueous ammonium molybdate • Development Buffer B: 11% ascorbic acid in 37.5% TCA in water • Stop buffer C: 2% trisodium citrate in 2% acetic acid solution in water • Add 100 μl of reaction buffer to each well. • Add […] (control) or inhibitor/compound or compounds such as […] or orthovanadate to each well. […] A blank cell indicates either <10% observed inhibition or a large difference between repetitions. In certain examples, the lack of observed inhibition is due to a lack of solubility of the compound under assay conditions, rather than a lack of apyrase inhibitory activity. Roux compound 15 inhibited apyrase in this assay at about 60%.

Microdochium nivale = experiment: In vitro assessment of combination activity with fungicides on agar; assay type: cell-based; conditions: fungicide at a rate just below that giving any control; visual assessment of % control;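 note: scored as inactive or active or highly active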
Experimental: (§1) Method 2: In Vitro Assessment of Combination Activity
(§2) Selected compounds were assessed in combination with fungicides against a range of commercially important plant pathogenic fungi.
(§3) The test was conducted as follows. A fungicide was applied to a fungal plant pathogen at a rate slightly below that at which it gave any control, in combination with a suitable dose of the test compound. The test compound was recorded as active if control of the pathogen was observed.
(§4) In more detail, the test was conducted as follows. For each combination of fungicide, pathogen and test compound, the following wells were used. Well 1 contained a fungal pathogen growing on agar, and a fungicide at a rate just below that at which it gave any control of the pathogen. Well 2 was the same as Well 1, except that the test compound was also added at Rate 1. Well 3 was the same as Well 2, except that the test compound was added at Rate 2, where Rate 2 was higher than Rate 1. Finally, as a benchmark, Well 4 was the same as Well 1, except that it contained the fungicide at a higher rate, at which it gave partial control of the pathogen. Each of the Wells 1 to 4 were run in duplicate, giving a total of 8 wells for each combination of fungicide, pathogen and test compound. For each well, after a suitable period of incubation, a visual assessment of the % control of the pathogen by the fungicide was made.
(§5) The following fungicides were used in this assay: azoxystrobin, fluxapyroxad, and desthio prothioconazole. The following fungal pathogens were used in this assay. First, a strain of Zymoseptoria tritici with a reduced susceptibility to strobilurin fungicides; second a strain of Zymoseptoria tritici with a reduced susceptibility to SDHI fungicides (i.e., those that inhibit succinate dehydrogenase); and third, Microdochium nivale.

[1] = system: Zymoseptoria tritici with a reduced susceptibility to SDHI fungicides; experiment: as above; assay type: cell-based; conditions: fungicide at a rate just below that giving any control; visual assessment of % control;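 note: scored as inactive or active or highly active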
Experimental: as §1, §2, §3, §4, §5

[2] = system: Zymoseptoria tritici with a reduced susceptibility to strobilurin fungicides; experiment: as above; assay type: cell-based; conditions: fungicide at a rate just below that giving any control; visual assessment of % control;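 note: scored as inactive or active or highly active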
Experimental: as §1, §2, §3, §4, §5

[3] = system: Botrytis cinerea on tomatoes; experiment: Greenhouse crop test in combination with commercial fungicide; assay type: in vivo; conditions: for control of Botrytis by Amistar in combination with test compound: Amistar 0.03 L/ha; for activity against Botrytis of Balaya in combination with test compound: compared to Balaya alone; for control of Botrytis by Imtrex in combination with test compound: Imtrex 0.005 L/ha, compared to Imtrex alone or with Roux Compound 15 at 30 ppm; for control of Botrytis by Proline in combination with test compound: Proline 0.00075 L/ha, compared to Proline alone
Experimental: (§6) Method 3: Greenhouse Crop Tests
(§7) In this method, exemplary compounds were evaluated for their ability to control Zymoseptoria tritici on wheat, Botrytis cinerea on tomatoes, Asian Soya Rust (Phakopsora pachyrhizi) on soybean, and Brown Rust (Puccinia recondita) on wheat, in a controlled greenhouse environment in combination with one of four fungicides, Amistar, Imtrex, Proline or Balaya. In these studies, soybean cultivar Siverka, tomato (Money maker) and wheat plants (JB Diego) were used. Seeds were sown in 9 cm diameter pots to a depth of 1 to 2 cm using Petersfield potting compost (75% medium grade peat, 12% screened sterilized loam, 3% medium grade vermiculite, 10% grit (5 mm screened, lime free), 1.5 kg PG mix per m3, lime to pH5.5-6.0 and wetting agent (Vitax Ultrawet 200 ml per m3) and germinated/grown at 23° C. under a 16 h day/8 h night light regime. Plants were treated two to three weeks after sowing when they were at the BBCH 11 growth stage (first pair of true leaves (unifoliate) unfolded. A track sprayer was used to treat the plants with the mixture of commercial fungicide and test compound using a water volume of 200 L/ha. Plants were inoculated with the appropriate fungi (pathogen) 24 hours after treatment. Fungal pathogens used were Botrytis cinerea (Grey mold on tomato plants), Zymoseptoria tritici (Septoria leaf blotch on wheat plants), Puccinia triticina (Brown rust on wheat plants) and Phakopsora pachyrhyzi (Asian soy rust on soybean plants). Four replicates were used for each combination of fungicide, pathogen and test compound. Each plant was evaluated once the disease symptoms were fully expressed between seven to twenty days (depending on the pathogen) for % control of the disease. Appropriate controls were used for all experiments, including an ‘inoculation check’ wherein plants were inoculated with their specific pathogen to assess disease levels. Also, each commercial fungicide was tested on its own as a part of each treatment, this being benchmark against which the experimental compounds were evaluated. […] That is, the present compounds, although not fungicidal by themselves, enhance the activity of fungicides.
(§8) In these studies the fungicide was applied at the following rates

[4] = system: Asian Soya Rust (Phakopsora pachyrhizi) on soybean; experiment: as above; assay type: in vivo; conditions: test compound at 20 ppm
Experimental: as §6, §7, §8

[5] = system: Brown Rust (Puccinia recondita) on wheat; experiment: as above; assay type: in vivo; conditions: Imtrex 0.35 L/ha; test compound at 20 ppm
Experimental: as §6, §7, §8

[6] = system: Zymoseptoria tritici on wheat; experiment: as above; assay type: in vivo; conditions: test compound at 20 ppm; for control of Zymoseptoria tritici by Balaya in combination with test compound: Balaya 0.0015 L/ha, compared to Balaya alone or with Roux Compound 15 at 30 ppm; for control of Zymoseptoria tritici by Proline in combination with test compound: Proline 0.0075 L/ha, compared to Proline alone and with Roux Compound 15
Experimental: as §6, §7, §8

[7] = test compound rate not printed (same rate for both, the higher rate), compared to Amistar alone
[8] = Balaya 0.0015 L/ha, test compound at 15 ppm

Compound: C/C(=N\NC(=O)c1cccc(F)c1)c1ccccn1 [I-4, (E)-3-fluoro-N′-(1-(pyridin-2-yl)ethylidene)benzohydrazide]
% Inhibition of Apyrase (apyrase): 24%
activity in combination with azoxystrobin (Microdochium nivale): significant activity
activity in combination with desthio prothioconazole (Microdochium nivale): significant activity
activity in combination with fluxapyroxad (Microdochium nivale): significant activity
activity in combination with azoxystrobin [1]: significant activity
activity in combination with desthio prothioconazole [1]: significant activity
activity in combination with fluxapyroxad [1]: significant activity
activity in combination with azoxystrobin [2]: significant activity
activity in combination with desthio prothioconazole [2]: significant activity
activity in combination with fluxapyroxad [2]: significant activity
control of Botrytis by Amistar in combination with test compound ([3]; test compound at 15 ppm, compared to Amistar with Roux Compound 15 at 15 ppm): much higher levels of control
control of Botrytis by Amistar in combination with test compound [3, 7]: substantially higher than with Amistar alone
activity against Botrytis of Balaya in combination with test compound [3, 8]: significantly more active
control of Botrytis by Imtrex in combination with test compound ([3]; test compound at 30 ppm): far superior control
control of Botrytis by Proline in combination with test compound ([3]; test compound at 30 ppm): notably higher than with Proline alone

Compound: CCCC/C=N/NC(=O)c1ccccc1 [I-9, (E)-N′-pentylidenebenzohydrazide]
% Inhibition of Apyrase (apyrase): 19%
activity in combination with azoxystrobin (Microdochium nivale): significant activity
activity in combination with desthio prothioconazole [1]: significant activity

Compound: C/C(=N\NC(=O)c1cccc(NS(C)(=O)=O)c1)c1ccc2ccccc2c1 [I-214, (E)-N-(3-(2-(1-(naphthalen-2-yl)ethylidene)hydrazine-1-carobnyl)phenyl)methanesulfonamide]
% Inhibition of Apyrase (apyrase): 55%
activity in combination with fluxapyroxad (Microdochium nivale): significant activity
activity in combination with desthio prothioconazole [1]: significant activity
activity in combination with desthio prothioconazole [2]: significant activity
activity of Amistar against Asian Soybean Rust with addition of test compound ([4]; Amistar 0.02 L/ha): substantially enhanced
activity of Balaya against Asian Soybean Rust with addition of test compound ([4]; Balaya 0.03 L/ha): substantially enhanced
activity of Proline against Asian Soybean Rust with addition of test compound ([4]; Proline 0.15 L/ha): substantially enhanced
control of Botrytis by Balaya in combination with test compound ([3]; Balaya 0.0015 L/ha, test compound at 20 ppm, compared to Balaya alone or with Roux Compound 15 at 30 ppm): notably superior control
control of Botrytis by Imtrex in combination with test compound ([3]; test compound at 20 ppm): notably superior control
activity of Imtrex against Brown Rust with addition of test compound [5]: substantially enhanced
control of Zymoseptoria tritici by Amistar in combination with test compound ([6]; Amistar 0.1 L/ha, compared to Amistar alone or with Roux Compound 15 at 30 ppm): notably superior control
control of Zymoseptoria tritici by Balaya in combination with test compound [6]: notably superior control
control of Zymoseptoria tritici by Imtrex in combination with test compound ([6]; Imtrex 0.02 L/ha, similar to Imtrex with Roux Compound 15 at 15 and 30 ppm): superior control to Imtrex or Proline alone
control of Zymoseptoria tritici by Proline in combination with test compound [6]: superior control to Imtrex or Proline alone

Compound: C/C(=N\NC(=O)c1cccc(C)c1)c1cnc2ccccc2c1 [I-215, (E)-3-methyl-N′-(1-(quinolin-3-yl)ethylidene)benzohydrazide]
% Inhibition of Apyrase (apyrase): 46%
activity in combination with fluxapyroxad (Microdochium nivale): significant activity

Compound: CNS(=O)(=O)c1cccc(C(=O)N/N=C(\C)c2ccc3ccccc3c2)c1 [I-222, (E)-N-methyl-3-(2-(1-(naphthalen-2-yl)ethylidene)hydrazine-1-carbonyl)benzenesulfonamide]
% Inhibition of Apyrase (apyrase): 12%

Compound: C/C(=N\NC(=O)c1cc(C)ncn1)c1ccc2ccccc2c1 [I-223, (E)-6-methyl-N′-(1-(naphthalen-2-yl)ethylidene)pyrimidine-4-carbohydrazide]
% Inhibition of Apyrase (apyrase): 10%
activity in combination with fluxapyroxad (Microdochium nivale): significant activity
activity in combination with desthio prothioconazole [2]: significant activity
control of Zymoseptoria tritici by Balaya in combination with test compound [6]: notable superior results
control of Zymoseptoria tritici by Proline in combination with test compound [6]: notable superior results

Now from value to compound, other results behind:

% Inhibition of Apyrase (apyrase): 10%
Compound: C/C(=N\NC(=O)c1cccc(C)c1)c1ccc2c(c1)CCC2 [I-224, (E)-N′-(1-(2,3-dihydro-1H-inden-5-yl)ethylidene)-3-methylbenzohydrazide]

% Inhibition of Apyrase (apyrase): 6%
Compound: C/C(=N\NC(=O)c1nccc(C)n1)c1ccc2ccccc2c1 [I-225, (E)-4-methyl-N′-(1-(naphthalen-2-yl)ethylidene)pyrimidine-2-carbohydrazide]

% Inhibition of Apyrase (apyrase): 1%
Compound: C/C(=N\NC(=O)c1cncc(C)c1)c1ccc2ccccc2c1 [I-226, (E)-5-methyl-N′-(1-(naphthalen-2-yl)ethylidene)nicotinohydrazide]

% Inhibition of Apyrase (apyrase): about 60%
Compound: C/C(=N\NC(=O)c1cccc(C)c1)c1ccc2ccccc2c1 [Roux compound 15, reference compound]
activity in combination with azoxystrobin (Microdochium nivale): no activity
activity in combination with desthio prothioconazole (Microdochium nivale): no activity
activity in combination with fluxapyroxad (Microdochium nivale): no activity
activity in combination with azoxystrobin [1]: no activity
activity in combination with desthio prothioconazole [1]: no activity
activity in combination with fluxapyroxad [1]: no activity
activity in combination with azoxystrobin [2]: no activity
activity in combination with desthio prothioconazole [2]: no activity
activity in combination with fluxapyroxad [2]: no activity
control of Botrytis by Amistar in combination with test compound [3, 7]: substantially higher than with Amistar alone
activity against Botrytis of Balaya in combination with test compound [3, 8]: no more active against Botrytis than Balaya alone
control of Botrytis by Proline in combination with test compound ([3]; test compound at 30 ppm): notably higher than with Proline alone
